How the values were obtained:
[1] = system: PNPLA3 mRNA; test: qRT-PCR of PNPLA3 mRNA in compound-treated primary human hepatocytes
[2] = High sucrose diet mouse pharmacology study, toxicity; conditions: OSI-027 50 mg/kg, PF-04691502 10 mg/kg, LY2157299 75 mg/kg, QD oral gavage four days
Method: C57BL/6J mice were divided into 12 groups. Each group had 6 male mice. All mice were given a high sucrose (HS) diet at night on a synchronized schedule. The diet regimen was initiated 6 days prior to dosing. Starting Day 7, mice were administered with a single concentration of a candidate compound four times QD daily via oral gavage for four consecutive days. […] Groups 1-10 received food throughout the dosing period. Groups 11-14 received food for three out of the four nights of the dosing and were fed the following morning along with the final dose of the drug. Mice in groups 1-10 were sacrificed 12 hours post-last dose on Day 11, and mice in groups 11-14 were sacrificed 6 hours post-last dose on Day 11. Organs including liver, spleen, kidney, adipose, plasma, and muscle were collected. Eyes were also collected for groups 11-14.

[3] = system: ANGPTL3 mRNA in mouse liver; test: High sucrose diet mouse dose response study, liver ANGPTL3 mRNA; format: in vivo; conditions: HS diet mice, 6 hours post dose
[4] = system: COL1A1 mRNA in mouse liver; test: High sucrose diet mouse dose response study, liver COL1A1 mRNA; format: in vivo; conditions: HS diet mice, 6 hours post dose
Method: (§1) C57BL/6J mice were divided into 14 groups. Each group had 6 male mice. All mice were given an HS diet at night on a synchronized schedule. […] The animals received no food at night on Day 10.
(§2) Mouse liver tissues were pulverized in liquid nitrogen and aliquoted into small microtubes. TRIzol (Invitrogen Cat #15596026) was added to the tubes to facilitate cell lysis from tissue samples. The TRIzol solution containing the disrupted tissue was then centrifuged and the supernatant phase was collected. Total RNA was extracted from the supernatant using Qiagen RNA Extraction Kit (Qiagen Cat #74182) and the target mRNA levels were analyzed using qRT-PCR. mRNA levels for PNPLA3, PNPLA5, COL1A1, and PCSK9 were assessed.

[5] = system: PNPLA3 mRNA in mouse liver; test: High sucrose diet mouse pharmacology study, liver PNPLA3 mRNA; format: in vivo; conditions: HS diet mice
Method: LY2157299 was also tested in vivo. C57BL/6J mice were divided into […]. Each group had 6 male mice. […] Groups 1-10 received food throughout the dosing period. […] Eyes were also collected for groups 11-14.
Mouse liver tissues were pulverized in liquid nitrogen and aliquoted into small microtubes. TRIzol (Invitrogen Cat #15596026) was added to the tubes to facilitate cell lysis from tissue samples. The TRIzol solution containing the disrupted tissue was then centrifuged and the supernatant phase was collected. Total RNA was extracted from the supernatant using Qiagen RNA Extraction Kit (Qiagen Cat#74182) and the PNPLA3 mRNA levels were analyzed using qRT-PCR.
as §1, §2

[6] = system: PCSK9 mRNA in mouse liver; test: High sucrose diet mouse dose response study, liver PCSK9 mRNA; format: in vivo; conditions: HS diet mice, 6 hours post dose
Method: as §1, §2

[7] = system: PNPLA5 mRNA in mouse liver; test: High sucrose diet mouse dose response study, liver PNPLA5 mRNA; format: in vivo; conditions: HS diet mice, 6 hours post dose
Method: as §1, §2

[8] = system: ACTA2 mRNA; test: qRT-PCR of fibrosis related genes in stellate cells, ACTA2; format: cell-based, human; conditions: stellate cells P7, 0.5 μM, 18 hours
Method: (§3) Stellate cells P7 were treated with 0.5 μM of each of the indicated compounds for 18 hours. Cells were processed for RNA extraction and qRT-PCR as previously described. The assay was repeated in triplicate.

[9] = system: MMP2 mRNA; test: qRT-PCR of fibrosis related genes in stellate cells, MMP2; format: cell-based, human; conditions: stellate cells P7, 0.5 μM, 18 hours
Method: as §3

[10] = system: PNPLA3 expression; test: RNA-seq of compound-treated primary human hepatocytes; format: cell-based; conditions: PNPLA3 expression, RNA-seq
[11] = system: COL1A2 mRNA; test: qRT-PCR of fibrosis related genes in stellate cells, COL1A2; format: cell-based, human; conditions: stellate cells P7, 0.5 μM, 18 hours
Method: as §3

[12] = system: PCSK9 mRNA; test: qRT-PCR of PCSK9 mRNA in primary hepatocytes; format: cell-based, human; conditions: donor 4178, 3 μM, relative to GUSB
[13] = system: PNPLA3 mRNA; test: qRT-PCR of PNPLA3 mRNA in human primary hepatic stellate cells; format: cell-based
[14] = system: COL1A1 mRNA; test: qRT-PCR of COL1A1 mRNA in human primary hepatic stellate cells; format: cell-based
[15] = system: TGFB1 mRNA; test: qRT-PCR of fibrosis related genes in stellate cells, TGFB1; format: cell-based, human; conditions: stellate cells P7, 0.5 μM, 18 hours
Method: as §3

[16] = system: TIM2 mRNA; test: qRT-PCR of fibrosis related genes in stellate cells, TIM2; format: cell-based, human; conditions: stellate cells P7, 0.5 μM, 18 hours
Method: as §3

[17] = system: COL1A1 mRNA in mouse liver; test: In vivo compound testing in wild-type mice, liver COL1A1 mRNA; conditions: 50 mg/kg once daily, oral gavage, four days; GFAP as control
Method: A group of 6 mice (C57BL/6J strain), 3 male and 3 female, were administered with a candidate compound once daily via oral gavage for four consecutive days. Mice were sacrificed 4 hours post-last dose on the fourth day. Organs including liver, spleen, kidney, adipose, plasma were collected. Mouse liver tissues were pulverized in liquid nitrogen and aliquoted into small microtubes. TRIzol (Invitrogen Cat #15596026) was added to the tubes to facilitate cell lysis from tissue samples. The TRIzol solution containing the disrupted tissue was then centrifuged and the supernatant phase was collected. Total RNA was extracted from the supernatant using Qiagen RNA Extraction Kit (Qiagen Cat #74182) and the target mRNA levels were analyzed using qRT-PCR.
Candidate compounds were administered at an appropriate dose once daily to a group of wild-type mice consisting of 3 male and 3 female mice. Mice were sacrificed on the fourth day and liver tissue was collected and analyzed for PNPLA3 (or COL1A1) expression by qRT-PCR. […] When COL1A1 was analyzed, a stellate cell specific gene GFAP was used as a house-keeping control.

[18] = hepatic stellate cells, 0.01 μM
[19] = hepatic stellate cells, serial dilutions, 18 hours
[20] = stellate cells P7, 0.5 μM, 18 hours

**Q.** What does the source list for `Cc1cccc(-c2nn3c(c2-c2ccnc4ccc(C(N)=O)cc24)CCC3)n1` [LY2157299, Galunisertib]?
**A.** PNPLA3 expression, co-treatment with TGFβ-ligand (in words) ([1]; hepatocytes, TGFb-ligand-induced expression): PNPLA3 expression was reduced; toxicity in animals [2]: did not show toxicity; ANGPTL3 liver mRNA, dose titration (in words) [3]: decrease in COL1A1 and ANGLPTL3 mRNA; COL1A1 liver mRNA, dose titration (in words) [4]: decrease in COL1A1 and ANGLPTL3 mRNA; PNPLA3 liver mRNA, 12 hours post-dose (in words) ([5]; QD oral gavage four days, OSI-027 50 mg/kg, PF-04691502 10 mg/kg, LY2157299 75 mg/kg): reduced PNPLA3 mRNA at 12 hours post-dose; PNPLA3 liver mRNA, dose titration (in words) ([5]; decreasing doses QD oral gavage four days, 6 hours post dose): did not show a significant decrease in PNPLA3 or PNPLA5 mRNA; PCSK9 liver mRNA, dose titration (in words) [6]: three lower doses (50 mg/kg, 25 mg/kg, and 10 mg/kg) resulted in a decrease in PCSK9 mRNA; PNPLA5 liver mRNA, dose titration (in words) [7]: did not show a significant decrease in PNPLA3 or PNPLA5 mRNA

**Q.** What does the source list for `CNC(=O)Nc1ccc(-c2nc(N3CC4CCC(C3)O4)c3cnn(C4CCC5(CC4)OCCO5)c3n2)cc1` [WYE-125132]?
**A.** Relative mRNA ACTA2 [8]: 0.54 ± 0.01; Relative PNPLA3 mRNA levels ([1]; 1 μM of WYE-125132, human hepatocytes, qRT-PCR, mean of three replicates ± standard deviation): 0.67 ± 0.09; Primary Hepatocytes 4178 PNPLA3 (fold change in mRNA expression) ([1]; donor 4178, 3 μM, relative to GUSB): 0.43; Primary Hepatocytes 4282 PNPLA3 (fold change in mRNA expression) ([1]; donor 4282, 3 μM, relative to GUSB): 0.70; PNPLA3 expression by reported compound specificity (in words) ([1]; summary of mTOR/PI3K inhibitor testing): did decrease PNPLA3 expression; Relative mRNA MMP2 [9]: 1.33 ± 0.02; Fold change (Log 2) vs untreated [10]: −0.86; Relative mRNA COL1A2 [11]: 0.27 ± 0.00; Primary Hepatocytes 4178 PCSK9 (fold change in mRNA expression) [12]: 0.43; Primary Stellate cells PNPLA3 (fold change in mRNA expression) ([13]; 3 μM, relative to GAPDH): 0.54; Relative PNPLA3 mRNA levels RQ [13, 18]: 0.44; Relative PNPLA3 mRNA levels RQ ([13]; hepatic stellate cells, 0.1 μM): 0.36; Relative PNPLA3 mRNA levels RQ ([13]; hepatic stellate cells, 1 μM): 0.42; Relative PNPLA3 mRNA levels RQ ([13]; hepatic stellate cells, 10 μM): 0.42; PNPLA3 mRNA levels (in words) [13, 19]: decreased both PNPLA3 and COL1A1 in HSCs in a dose-dependent manner; Relative mRNA PNPLA3 [13, 20]: 0.20 ± 0.01; Primary Stellate cells COL1A1 (fold change in mRNA expression) ([14]; 3 μM, relative to GAPDH): 0.46; Relative COL1A1 mRNA levels RQ [14, 18]: 0.92; Relative COL1A1 mRNA levels RQ ([14]; hepatic stellate cells, 0.1 μM): 0.42; Relative COL1A1 mRNA levels RQ ([14]; hepatic stellate cells, 1 μM): 0.26; Relative COL1A1 mRNA levels RQ ([14]; hepatic stellate cells, 10 μM): 0.29; COL1A1 expression (in words) [14, 19]: decreased both PNPLA3 and COL1A1 in HSCs in a dose-dependent manner; Relative mRNA COL1A1 [14, 20]: 0.22 ± 0.01; Relative mRNA TGFB1 [15]: 1.10 ± 0.03; Relative mRNA TIMP2 [16]: 1.01 ± 0.07; COL1A1 expression in mouse liver (in words) [17]: reduced COL1A1 expression in mouse liver

Reference: patent publication US20220107328A1, “METHODS OF TREATING LIVER DISEASES” (Camp4 Therapeutics Corporation, priority 2018, published 2022)
